# Experimental data as given in US4579841A, “Dipeptide derivatives having opiate activity” (University Patents, Inc., priority 1981, dated 1986).
# Where a SMILES comes first, the peptide text is derived from it. [ ]: non-standard residue; d: D form.
# Test system: electrically stimulated guinea pig ileum
# Assay: In vitro assay on the electrically stimulated guinea pig ileum (Chipkin, et al.)
# Type: cell-based
# Details: potency relative to methionine-enkephalin=100
# Description: Peptides were assayed for biological activity in vitro on the electrically stimulated guinea pig ileum, using the procedure described by Chipkin, et al. (Life Sciences 28:1517-1522, 1981). All potencies of the peptides in this assay are reported relative to the potency of methionine-enkephalin=100. Analgesic activity of the peptides in vivo was assayed by the tail-flick method following intracerebroventricular injection, as described in the Chipkin, et al., reference. The standard for this assay was Tyr-D-Ala-Gly-Phe-Met-amide.
# *(Assay on the stimulated guinea pig ileum according to Chipkin, et al.;
# standard peptide is methionineenkephalin.)
compound,measurement,value
NC(=O)[C@@H](Cc1ccccc1)NC(=O)[C@@H](N)Cc1ccc(O)cc1 [Tyr--D-Phe--NH2] (H-Tyr-[dF]-NH2),Relate In Vitro Potency,0.1
